Paper PMC8880313, “Discovery of Novel Andrographolide Derivatives as Antiviral Inhibitors against Human Enterovirus A71” (Pharmaceuticals, 2022)

Assays:
EV-A71 = assay: Immunofluorescence-based preliminary screen of EV-A71-infected RD cells; assay type: cell-based, human enterovirus A71 (EV-A71) strain 41; conditions: EV-A71-infected RD cells (MOI = 1)
Source text: The screening assay was built using an immunofluorescence approach that was previously established and validated, with DAPI-stained nuclei accounting for total cell count and FITC-stained EV-A71 accounting for infected cell count upon EV-A71 infection and compound treatment. Both cell counts would then be used to calculate percentage infection and percentage inhibition to identify for hits. Before the screening platform can be employed to screen for potential antivirals, its robustness has to be appraised. In this study, Z-factor was calculated to assess the robustness of the screening platform. Firstly, seeded RD cells were either infected with EV-A71 (Multiplicity of Infection of 1) or mock-infected with media. The cells were then fixed, stained and imaged 12 h post-infection (hpi). The IFA images were analyzed with the Cell Profiler software to determine the infection rate of each well. Between the virus-infected and mock-infected wells, a clear distinction in infection rates could be observed (Figure 1a). […] In this case, the Z-factor, measured at 0.818, was indicative of a highly robust screening platform for high-throughput screening. The constructed screening platform was then employed to screen the compound library made up of 344 chemically synthesized novel compounds analogous to andrographolide. The compounds were screened at 10 µM with IFA images taken and analyzed to identify for hits. Treatment with 0.1% DMSO was used as vehicle control.
Seeded 96-well plates (Corning Inc., Corning, NY, USA), with 2 × 10^4 RD cells per well, were incubated overnight at 37 °C with 5% CO2. The seeded cells were then infected with EV-A71 (50 µL per well, MOI = 1) for 1 h at 37 °C with 5% CO2. The EV-A71-infected cells were then treated with the compound library at a final concentration of 10 µM for 12 h at 37 °C with 5% CO2. Treatment with 0.1% DMSO was used as vehicle control. Following treatment, cells were fixed with 100 µL of methanol (Sinopharm Chemical, Shanghai, China) for 15 min at −20°C and rinsed with 100 µL of 1x PBS for three times before performing indirect immunofluorescence assay (IFA). Anti-EV-A71 VP2 1° antibodies, MAB979 (Merck Millipore, Burlington, VT, USA), diluted 500-fold in PBS, was incubated with the fixed cells for 1 h at 37 °C. Cells were then rinsed thrice with PBS and incubated with anti-mouse FITC 2° antibodies (Merck Millipore), diluted 200-fold in PBS, for 1 h at 37 °C. After which, the cells were rinsed thrice with PBS before staining with DAPI (Sigma-Aldrich) at room temperature for 15 min. Cells were then rinsed thrice and preserved in 100 µL of PBS before imaging with the Operetta High-Content Imaging System and the Harmony High-Content Imaging and Analysis Software (Perkin Elmer, Waltham, MA, USA). Images of stained cells were captured with the DAPI and FITC fluorescence filters, from a pre-determined central position of each well and processed with the Cell Profiler software. […] The percentage infection (PI) for each well was calculated using the formula: Infected cell count/Total cell count × 100%. The percentage inhibition for each well was calculated using the formula PI0− PI/PI0 × 100% where PI0 refers to the percentage infection of wells treated with the vehicle control while PI refers to the percentage infection of wells treated with the compounds.

CV-A24 = assay: Post-treatment assay, antiviral spectrum; assay type: cell-based, Coxsackievirus A24
Protocol: We were also interested in the antiviral potential of ZAF-47 against other Enteroviruses. As such, we performed post-treatment assay on RD cells infected with other Enteroviruses such as CV-A16, CV-A6, Echo7, CV-B5, CV-A24 and EV-D68.
To determine the inhibitory profiles of the hits, post treatment assay was performed. Seeded 24-well plates, with 1.5 × 10^5 RD cells per well, were incubated overnight at 37 °C with 5% CO2. The seeded cells were infected with EV-A71 (100 µL per well, MOI = 1) for 1 h at 37 °C with 5% CO2 and then rinsed with 1 mL of PBS twice. Different concentrations of the hits were used to treat the infected cells for 12 h at 37 °C with 5% CO2. At 12 hpi, the plates were frozen and thawed for 2 cycles (−80°C; 37 °C) before collection of supernatants to measure the viral titres via viral plaque assay.
Measurement of the viral titres from collected supernatants was derived from viral plaque assays. To do this, 24-well plates, seeded with 2.4 × 10^5 RD cells per well, were used in plaque assays for EV-A71, EV-D68, Echo7, CV-A6, CV-A16 and CV-A24 while 24-well plates, seeded with 1.2 × 10^5 Vero cells per well, were used in plaque assays for CV-B5. Seeded cells were incubated overnight at 37 °C with 5% CO2. […] Subsequent formation of viral plaques was counted manually to quantify the viral titre in PFU/mL […]

For `CC(=O)OC[C@]1(C)C(=O)CC[C@@]2(C)C(C/C=C3/C(=O)OC[C@@H]3Oc3cccc4cccnc34)=C(C)CC[C@@H]21` [ZAF-47, (14β)-(8′-Quinolinoxy)-3-ketone-9-dehydro-17-hydro-19-acetoxy–andrographolide], the “Nuclei Count” value (EV-A71; 10 µM, 12 h, 0.1% DMSO wells 998) was 955, the inhibition at 10 µM (EV-A71; Enterovirus A, EVA71, 12 h, read-out: Inhibition Rate (%)) was 77.1% and the viral titre (CV-A24; 10 µM, CV-A24-infected RD cells) was “reducing the viral titres of the above-listed enteroviruses significantly”. The IC50 (CV-A24; CVA24, CV-A24, Enterovirus C, drug treatment duration 12 h, RD cells) was 1090 nM.
